Where two headings read alike, the source gives them in different places.
What was measured:
HCT116 cells = experiment: Antagonistic effect assay against HCT116 cell proliferation (CellTitle-Glo); assay type: cell-based; settings: Homo sapiens, HCT-116, 72 h treatment, 0.01-10.00 µM, read-out: Antiproliferative IC50
Method: Frozen HCT116 cells were rapidly transferred from liquid nitrogen to a 37 °C water bath and rapidly shaken for thawing. The cell suspension was transferred to a 15 mL centrifuge tube and centrifuged at 1500 rpm for 5 min, and the supernatant was discarded. The cell pellet was resuspended in RPMI-1640 complete medium (containing 10% fetal bovine serum and 1% penicillin/streptomycin) and transferred to a cell culture dish containing 10 mL of medium. The cells were cultured in an incubator at 37 °C/5% CO2. The cells were passaged after adhesion to the wall.
HCT116 cells in the logarithmic growth phase and in good condition were taken, digested with a trypsin solution, resuspended in a certain amount of RPMI-1640 complete medium to form a single-cell suspension, counted on a cell counting plate, and seeded into a 96-well white plate at a density of 800 cells/well. The plate was left to stand for 5 min and then incubated in an incubator at 37 °C/5% CO2 overnight. The next day, the cells were treated with the compound at different concentrations, and the control group was treated with DMSO at the corresponding concentration. The compound, dissolved in DMSO, was diluted in RPMI-1640 complete medium at a ratio of 1:1000 to obtain final concentrations of 10.00 µM, 3.33 µM, 1.11 µM, 0.37 µM, 0.12 µM, 0.04 µM, and 0.01 µM. Each group was set up with 3 replicate wells, and 100 µL of the treatment solution was added to each well. The plate was incubated in an incubator at 37 °C/5% CO2 for 72 h.
After 72 h of treatment, the CellTitle-Glo assay was performed. 100 µL of CellTitle-Glo solution was added to each well of the control and treatment groups. The plate was mixed on an oscillator for 2 min to induce cell lysis. The 96-well plate was incubated at room temperature for 10 min to stabilize the luminescence signal value. The luminescence signal was measured using a microplate reader. The DMSO-treated cell group was used as the control group, and 50% inhibitory concentration (IC50) was calculated according to the median effect equation as follows: [formula]
The IC50 values of the compounds were calculated using GraphPad Prism nonlinear fitting equation. Table 2. Results for the inhibitory effect of the compounds of the present disclosure on HCT116 cell proliferation

CDK2/Cyclin E1 = molecular target: T1, CDK2/Cyclin E1 (Homo sapiens, UniProt P24941); experiment: CDK2 kinase antagonistic activity assay (TR-FRET); assay type: biochemical; settings: TR-FRET; peptide mix containing 10 µM ATP; 90 min at 23 °C; read-out: CDK2/Cyclin E1 IC50
T1 construct: purchased Invitrogen PV6296
Method: (§1) Compounds were dissolved in DMSO and serially diluted 3-fold to generate 11 concentrations. 100 nL of each compound was added to 384-well plates, followed by the addition of 5 µL of 2× CDK2/Cyclin E1 or CDK1/Cyclin B enzyme mixed solution. 5 µL of buffer (50 mM Hepes (pH 7.5), 10 mM MgCl2, 1 mM EDTA, 0.01% Brij-35, 2 mM DTT (prepared freshly)) was added to the complete inhibition control wells. The plates were centrifuged at 1000 rpm for 30 s and incubated at 23 °C for 15 min. Then, 5 µL of 2× MLight-MBP peptide (containing 10 µM ATP) was added to each well of each assay plate. The plates were centrifuged again at 1000 rpm for 30 s and incubated at 23 °C for 90 min.
After the incubation was completed, the reaction was stopped with a detection buffer containing 15 mM EDTA and 2 nM Eu-anti-P-MBP antibody. After centrifugation at 1000 rpm for about 1 min, the plates were incubated at 23 °C for 60 min and read on Perkin Elmer Envision. The TR-FRET ratio (value at 665 nm/value at 615 nm) was automatically calculated by Envision.
(§2) The IC50 values of the compounds were calculated using GraphPad Prism nonlinear fitting equation. Table 1. Kinase activity assay

[1] = In-vitro liver microsomal stability, human; assay type: in vitro ADME; settings: human liver microsomes 0.5 mg/mL, 1 µM, NADPH 1 mM, 37 °C
Method: (§3) Method: The metabolic stability of test substances was evaluated by using human, dog, and SD rat liver microsomes. The test substances were incubated with liver microsomes from different species and NADPH in a water bath at 37 °C. In the incubation system, the final concentration of the test or control sample was 1 µM, the final concentration of liver microsomes was 0.5 mg/mL, the final concentration of NADPH was 1 mM, and the final concentration of MgCl2 was 3 mM. At designated time points (5 min, 10 min, 20 min, 30 min, and 60 min), the reaction was stopped by adding a cold acetonitrile solution containing tolbutamide (at a concentration of 200 ng/mL) as an internal standard. For the 0-min sample, the stop solution was added before the addition of the NADPH working solution. Testosterone and dextromethorphan were used as positive control samples in the same conditions to assess the stability and reliability of the system. After sample pretreatment, semiquantitative analysis was performed using the LC-MS/MS method. The retention times of the analytes and internal standard, the acquisition of chromatograms and the integration of chromatograms were processed using software Analyst (AB Sciex, Framingham, Massachusetts, USA). The remaining percentage of the test samples after 60 min of incubation was calculated, and the test results are shown in Table 3. Table 3. Test data for the compounds of the present disclosure in human, dog, and rat liver microsomes

[2] = In-vitro liver microsomal stability, dog; assay type: in vitro ADME; settings: dog liver microsomes 0.5 mg/mL, 1 µM, NADPH 1 mM, 37 °C
Method: as §3

[3] = Permeability and transporter substrate evaluation, Caco-2 monolayer; assay type: in vitro ADME; settings: human, Caco-2, Table 4 experimental system, Caco-2, 2.00 µM
Method: (§4) Cell: Caco-2 cells Instrument: water purification equipment, ELGA LabWate; biosafety cabinet, Nuaire; thermostatic CO2 incubator, Thermo; microplate reader, PerkinElmer; LC-MS/MS, AB SCIEX. Method: The purpose of this study was to determine the two-way permeability of the compounds and evaluate whether they are effluxed and transported by P-glycoprotein (P-gp) using a Caco-2 monolayer cell model. In the experiment, Caco-2 cells were seeded into a 96-well cell plate and cultured for 24 consecutive days for the transport experiment. The compounds were administered bidirectionally at a concentration of 2.00 µM, with or without verapamil. After 120 min of incubation, the samples at the apical end A and the basal end B were collected. The content of the test samples in each sample was measured using the liquid chromatography-tandem mass spectrometry (LC-MS/MS) method. The apparent permeability coefficient and the efflux rate were calculated. Two experimental systems were used successively in this part, with the reference compound (PF-07104091) included. Table 4. Permeability test results

P-glycoprotein (P-gp) = experiment: as above; assay type: in vitro ADME; settings: human, Caco-2, Table 4 experimental system, Caco-2, 2.00 µM
Method: as §4

[4] = In-vitro liver microsomal stability, rat; assay type: in vitro ADME; settings: SD rat liver microsomes 0.5 mg/mL, 1 µM, NADPH 1 mM, 37 °C
Method: as §3

CDK1/Cyclin B = molecular target: T2, CDK1/Cyclin B (Homo sapiens, UniProt P06493); experiment: CDK1 kinase activity assay (TR-FRET); assay type: biochemical
T2 construct: purchased Invitrogen PR4768C
T2 sequence (P06493 whole entry): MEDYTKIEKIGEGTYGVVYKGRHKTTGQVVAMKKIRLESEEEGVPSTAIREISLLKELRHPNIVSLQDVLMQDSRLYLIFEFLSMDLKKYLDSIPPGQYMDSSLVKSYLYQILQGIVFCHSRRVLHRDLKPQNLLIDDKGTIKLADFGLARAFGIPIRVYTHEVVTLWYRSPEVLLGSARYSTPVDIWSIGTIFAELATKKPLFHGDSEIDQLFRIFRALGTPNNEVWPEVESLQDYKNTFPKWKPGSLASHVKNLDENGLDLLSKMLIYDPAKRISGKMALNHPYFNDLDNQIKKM
T2 sequence (P14635 whole entry partner): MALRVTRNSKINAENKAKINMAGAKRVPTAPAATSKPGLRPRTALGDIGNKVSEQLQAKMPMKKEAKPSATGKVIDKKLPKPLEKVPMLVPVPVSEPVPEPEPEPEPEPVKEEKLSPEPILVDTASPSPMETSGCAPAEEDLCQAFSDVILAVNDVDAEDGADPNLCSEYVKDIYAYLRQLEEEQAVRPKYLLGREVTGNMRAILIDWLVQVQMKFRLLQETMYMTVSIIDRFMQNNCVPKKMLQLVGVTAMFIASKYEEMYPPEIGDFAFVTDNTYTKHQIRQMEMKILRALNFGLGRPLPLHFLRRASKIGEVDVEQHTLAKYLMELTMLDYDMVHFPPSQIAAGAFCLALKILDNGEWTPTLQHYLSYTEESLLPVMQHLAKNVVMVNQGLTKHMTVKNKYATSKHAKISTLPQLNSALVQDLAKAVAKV
Method: as §1
After the incubation was completed, the reaction was stopped with a detection buffer containing 15 mM EDTA and 2 nM Eu-anti-P-MBP antibody. After centrifugation at 1000 rpm for about 1 min, the plates were incubated at 23 °C for 60 min and read on Perkin Elmer Envision.
as §2

[5] = TR-FRET, peptide mix containing 10 µM ATP, 90 min at 23 °C, read-out: CDK1/Cyclin B1 IC50

Row | SMILES | IC50 (HCT116 cells) [nM] | IC50 (CDK2/Cyclin E1) [nM] | Remaining amount% at 60 min Human [1] [%] | Remaining amount% at 60 min Dog [2] [%] | Papp A→B at 120 min, 2 µM [3] [×10⁻⁶ cm/s] | Papp B→A at 120 min, 2 µM [3] [×10⁻⁶ cm/s] | efflux ratio at 120 min, 2 µM (P-glycoprotein (P-gp)) | Remaining amount% at 60 min Rat [4] [%] | IC50 (CDK1/Cyclin B; [5]) [nM] | IC50 (CDK1/Cyclin B) [nM]
1 | COCc1cc(C(=O)Nc2cc([C@H]3CC[C@@H](OC(=O)NC(C)C#N)C3)[nH]n2)n(C)n1 (stereo partly drawn) [Compound 1] | 3660 | 2.24 | 80.3 | 92.0 | < 0.48 | 19.3 | > 40.2 | 85.0 | 78.2 | 
2 | COCc1cc(C(=O)Nc2cc([C@H]3CC[C@@H](OC(=O)N(C)C4CCC(=C(F)F)CC4)C3)[nH]n2)n(C)n1 (stereo partly drawn) [Compound 2] | 2470 | 5.15 | 5.38 | 12.7 | 0.218 | 43.4 | 199 | 3.87 | 42.5 | 
3 | COCc1cc(C(=O)Nc2cc([C@H]3CC[C@@H](OC(=O)NCC=C(F)F)C3)[nH]n2)n(C)n1 [Compound 3] | 2090 | 1.22 | 90.9 | 86.7 | 0.218 | 32.8 | 150 | 74.6 | 78.2 | 
4 | C#CC(C)NC(=O)O[C@@H]1CC[C@H](c2cc(NC(=O)c3cc(COC)nn3C)n[nH]2)C1 (stereo partly drawn) [Compound 4] | 2340 | 2.58 | 93.5 | 77.9 | 0.0791 | 30.8 | 390 | 77.9 | 460 | 
5 | COCc1cc(C(=O)Nc2cc([C@H]3CC[C@@H](OC(=O)NC45CC6CC(CC(C6)C4)C5)C3)[nH]n2)n(C)n1 [Compound 6] | 2640 | 0.95 | 11.0 | 30.3 | 0.54 | 26.3 | 48.7 | 1.80 |  | 78.4
6 | CC(C)NC(=O)O[C@@H]1CC[C@H](c2cc(NC(=O)c3cc(CS(C)(=O)=O)nn3C)n[nH]2)C1 [Compound 7] | 2250 | 0.64 | 93.2 | 101 | < 0.26 | 14.4 | > 55.4 | 101 | 90 | 
7 | CC(C)NC(=O)O[C@@H]1CC[C@H](c2cc(Nc3ccc(N4CCN(C)CC4)cc3)n[nH]2)C1 [Compound 9] | 2620 | 4.38 | 93.2 | 7.34 | 0.52 | 43.8 | 84.2 | 27.7 | 138 | 
8 | Cn1nc(CS(C)(=O)=O)cc1C(=O)Nc1cc([C@@H]2C[C@H](OC(=O)N3CCC3(C)C)CO2)[nH]n1 [Compound 27] | 3010 | 9.32 | 91.3 | 96.7 |  |  |  | 81.2 | 54.2 | 

Reference: patent EP4620954A1, “CDK2 INHIBITOR, PREPARATION METHOD THEREFOR, AND USE THEREOF” (Shandong Luye Pharmaceutical Co., Ltd., priority 2022, dated 2024)
